In data set [1] the test system is bicistronic HCV replicon (replicon RNA, GenBank Accession No. AJ242654). Description: HCV Replicon Assay. It is filed as cell-based. The conditions noted are these: Hepatitis C virus, 72 h, read-out: Replicon IC50. On the technique in general: Replicon systems follow genome replication, usually without infectious particles.

In patent US8735414B2 (priority 2009, dated 2014) one finds IC50 and melting point data, which are given here for 19 molecules.

Regarding `CC(C)(NS(=O)(=O)c1ccc(-c2c(C#N)c3ccc(OC(F)F)cc3n2C2CCCC2)nc1)C(F)(F)F` [compound 382, 6-[3-cyano-1-cyclopentyl-6-(difluoromethoxy)-1H-indol-2-yl]-N-(1,1,1-trifluoro-2-methylpropan-2-yl)pyridine-3-sulfonamide], the melting point lay in the range of 170 to 174 °C. For the same molecule, the IC50 in data set [1] is less than 500 nM.

Consider `C[C@@H](NS(=O)(=O)c1ccc(-c2c(C#N)c3ccc(C4CC4)cc3n2C2CCCC2)nc1)C(F)(F)F` [compound 211, 6-(3-cyano-1-cyclopentyl-6-cyclopropyl-1H-indol-2-yl)-N-[(2R)-1,1,1-trifluoropropan-2-yl]pyridine-3-sulfonamide], for which the melting point fell in the range of 178 to 181 °C. Moreover, in data set [1], the concentration for half-maximal inhibition (IC50) was less than 500 nM.

`C[C@H](NS(=O)(=O)c1cnc(-c2c(C#N)c3ccc(CC(F)F)cc3n2CC2CC2)nc1)C1CC1` [compound 619, 2-[3-cyano-1-(cyclopropylmethyl)-6-(2,2-difluoroethyl)-1H-indol-2-yl]-N-[(1S)-1-cyclopropylethyl]pyrimidine-5-sulfonamide] came in with a melting point of 144 to 150 °C. For the same molecule, the IC50 in data set [1] was less than 500 nM.

Turning to `C[C@H](NS(=O)(=O)c1ccc(-c2c(C#N)c3cc(F)c(OC(F)F)cc3n2CC2CC2)nc1)C(F)(F)F` [compound 787, 6-[3-cyano-1-(cyclopropylmethyl)-6-(difluoromethoxy)-5-fluoro-1H-indol-2-yl]-N-[(2S)-1,1,1-trifluoropropan-2-yl]pyridine-3-sulfonamide], the melting point was 149 to 153 °C. Besides, the IC50 in data set [1] is less than 500 nM.

The molecule `CC(C)Oc1ccc2c(C#N)c(-c3ccc(NS(=O)(=O)C4CC4)cn3)n(CC3CC3)c2c1` [compound 280, N-{6-[3-cyano-1-(cyclopropylmethyl)-6-(propan-2-yloxy)-1H-indol-2-yl]pyridin-3-yl}cyclopropanesulfonamide] came in with a melting point of 150 to 155 °C. Also, the IC50 in data set [1] lay within 500 to 2000 nM.

In turn, `CC(C)n1c(-c2ccc(S(=O)(=O)NC(CF)CF)cn2)c(C#N)c2ccc(C3CC3)cc21` [compound 83, 6-[3-cyano-6-cyclopropyl-1-(propan-2-yl)-1H-indol-2-yl]-N-(1,3-difluoropropan-2-yl)pyridine-3-sulfonamide] yielded a melting point of 184 to 190 °C. Further, the IC50 in data set [1] is less than 500 nM.

The molecule `Cc1cc2c(cc1F)c(C#N)c(-c1ccc(S(=O)(=O)N[C@@H](C)C(F)(F)F)cn1)n2-c1ncccc1C` [compound 739, 6-[3-cyano-5-fluoro-6-methyl-1-(3-methylpyridin-2-yl)-1H-indol-2-yl]-N-[(2S)-1,1,1-trifluoropropan-2-yl]pyridine-3-sulfonamide] displayed a melting point of 219 to 221 °C. Besides, in data set [1], the IC50 is less than 500 nM.

Regarding `CCc1cc2c(cc1F)c(C#N)c(-c1ccc(S(=O)(=O)N[C@@H](C)C(F)(F)F)cn1)n2C1CCCC1` [compound 633, 6-(3-cyano-1-cyclopentyl-6-ethyl-5-fluoro-1H-indol-2-yl)-N-[(2S)-1,1,1-trifluoropropan-2-yl]pyridine-3-sulfonamide], the melting point lay within 201 to 202 °C. The IC50 in data set [1] was less than 500 nM.

Regarding `CCc1cc2c(cc1F)c(C#N)c(-c1ccc(S(=O)(=O)NC(C)(C)C)cn1)n2-c1ccccn1` [compound 882, N-tert-butyl-6-[3-cyano-6-ethyl-5-fluoro-1-(pyridin-2-yl)-1H-indol-2-yl]pyridine-3-sulfonamide], the melting point is 200 to 205 °C. Besides, in data set [1], the IC50 was less than 500 nM.

`Cc1cc2c(cc1F)c(C#N)c(-c1ccc(S(=O)(=O)N[C@@H](C)C(F)(F)F)cn1)n2-c1cscn1` [compound 960, 6-[3-cyano-5-fluoro-6-methyl-1-(1,3-thiazol-4-yl)-1H-indol-2-yl]-N-[(2S)-1,1,1-trifluoropropan-2-yl]pyridine-3-sulfonamide] returned a melting point of 184 to 189 °C. Also, in data set [1], the IC50 was less than 500 nM.

`Cc1cc2c(cc1F)c(C#N)c(-c1ccc(S(=O)(=O)NC(C)(C)C(F)(F)F)cn1)n2C1CCC1` [compound 539, 6-(3-cyano-1-cyclobutyl-5-fluoro-6-methyl-1H-indol-2-yl)-N-(1,1,1-trifluoro-2-methylpropan-2-yl)pyridine-3-sulfonamide]: the melting point lay in the range of 238 to 243 °C. Further, the IC50 in data set [1] is less than 500 nM.

Regarding `C[C@@H](NS(=O)(=O)c1ccc(-c2c(C#N)c3ccc(F)cc3n2C2CCC2)nc1)C(F)(F)F` [compound 215, 6-(3-cyano-1-cyclobutyl-6-fluoro-1H-indol-2-yl)-N-[(2R)-1,1,1-trifluoropropan-2-yl]pyridine-3-sulfonamide], the melting point lay within 178 to 180 °C. The IC50 in data set [1] is 500 to 2000 nM.

For `C[C@H](NS(=O)(=O)c1ccc(-c2c(Cl)c3cc(F)c(C4CC4)cc3n2-c2ncccn2)nc1)C(F)(F)F` [compound 947, 6-[3-chloro-6-cyclopropyl-5-fluoro-1-(pyrimidin-2-yl)-1H-indol-2-yl]-N-[(2S)-1,1,1-trifluoropropan-2-yl]pyridine-3-sulfonamide], the melting point was in the range of 248 to 250 °C. In addition, in data set [1], the IC50 is less than 500 nM.

On to `N#Cc1c(-c2ccc(S(=O)(=O)NC(CF)CF)cn2)n(C2CCCC2)c2cc(OC(F)(F)F)ccc12` [compound 70, 6-[3-cyano-1-cyclopentyl-6-(trifluoromethoxy)-1H-indol-2-yl]-N-(1,3-difluoropropan-2-yl)pyridine-3-sulfonamide], for which the melting point lay within 141 to 143 °C. In data set [1], the IC50 was less than 500 nM.

For `Cc1ccc2c(C#N)c(-c3ncc(S(=O)(=O)NC(CF)CF)cn3)n(C(C)C)c2c1` [compound 134, 2-[3-cyano-6-methyl-1-(propan-2-yl)-1H-indol-2-yl]-N-(1,3-difluoropropan-2-yl)pyrimidine-5-sulfonamide], the melting point fell in the range of 213 to 215 °C. Besides, the IC50 in data set [1] is less than 500 nM.

As for `CCc1cc2c(cc1F)c(C#N)c(-c1ccc(S(=O)(=O)NC3(C)CC3)cn1)n2-c1ncccn1` [compound 860, 6-[3-cyano-6-ethyl-5-fluoro-1-(pyrimidin-2-yl)-1H-indol-2-yl]-N-(1-methylcyclopropyl)pyridine-3-sulfonamide], the melting point was 169 to 179 °C. Also, the IC50 in data set [1] is less than 500 nM.

Molecule `CC(C)NS(=O)(=O)c1ccc(-c2c(C#N)c3cc(OC(F)F)ccc3n2C2CCCC2)nc1` [compound 21, 6-[3-cyano-1-cyclopentyl-5-(difluoromethoxy)-1H-indol-2-yl]-N-(propan-2-yl)pyridine-3-sulfonamide] had a melting point of 177 to 179 °C. In addition, the IC50 in data set [1] was less than 500 nM.

In the case of `Cc1ccc2c(c1)c(C#N)c(-c1ccc(S(=O)(=O)N[C@@H](C)C3CC3)cn1)n2C1CCCCC1` [compound 606, 6-(3-cyano-1-cyclohexyl-5-methyl-1H-indol-2-yl)-N-[(1S)-1-cyclopropylethyl]pyridine-3-sulfonamide], the melting point lay in the range of 169 to 174 °C. Moreover, the IC50 in data set [1] was less than 500 nM.

The molecule `Cc1ccc2c(c1F)c(C#N)c(-c1ccc(S(=O)(=O)N[C@@H](C)C(F)(F)F)cn1)n2C1CCCC1` [compound 615, 6-(3-cyano-1-cyclopentyl-4-fluoro-5-methyl-1H-indol-2-yl)-N-[(2S)-1,1,1-trifluoropropan-2-yl]pyridine-3-sulfonamide] came in with a melting point of 186 to 197 °C. Also, in data set [1], the IC50 was less than 500 nM.

A word on the IC50: it is the midpoint of a concentration-inhibition curve. A word on the melting point: it is the temperature, or range, at which the solid turns liquid.
